# Measurements published in the supplement of paper PMC10307832.
# Tests used:
# Assay in all cases: relative viability (nuclei count vs DMSO), 5 days (fraction); higher = more cells survive
# Selisistat + Olaparib = compound: C1CC(C2=C(C1)C3=C(N2)C=CC(=C3)Cl)C(=O)N [Selisistat] + O=C(c1cc(Cc2n[nH]c(=O)c3ccccc23)ccc1F)N1CCN(C(=O)C2CC2)CC1 [Olaparib] (partner 8 µM)
# Procedure, shortened: (§1)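 Values are medians from duplicate plates. Each reflects relative viability, defined as the nuclei count of treated wells over that of vehicle wells. Lung cancer cell lines in 1536-well plates were pin-tool dosed one day after seeding with one drug alone or with a fixed anchor-drug dose plus five library-drug doses (not always all listed) in √10 steps, then fixed, stained and imaged at 4× after 5 days.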
# Serdemetan + Pictilisib = compound: c1ccc2c(CCNc3ccc(Nc4ccncc4)cc3)c[nH]c2c1 [Serdemetan] + CS(=O)(=O)N1CCN(Cc2cc3nc(-c4cccc5[nH]ncc45)nc(N4CCOCC4)c3s2)CC1 [Pictilisib] (partner 1 µM)
# Procedure, shortened: as §1
# Serdemetan + Vorinostat = compound: c1ccc2c(CCNc3ccc(Nc4ccncc4)cc3)c[nH]c2c1 [Serdemetan] + O=C(CCCCCCC(=O)Nc1ccccc1)NO [Vorinostat] (partner 1 µM)
# Procedure, shortened: as §1
# Selisistat + Pemetrexed = compound: C1CC(C2=C(C1)C3=C(N2)C=CC(=C3)Cl)C(=O)N [Selisistat] + Nc1nc2[nH]cc(CCc3ccc(C(=O)N[C@@H](CCC(=O)O)C(=O)O)cc3)c2c(=O)[nH]1 [Pemetrexed] (partner 0.2 µM)
# Procedure, shortened: as §1
Cell Line,relative viability (Selisistat + Olaparib; first compound 0.4 µM),relative viability (Selisistat + Olaparib; first compound 1.265 µM),relative viability (Selisistat + Olaparib; first compound 12.65 µM),relative viability (Selisistat + Olaparib; first compound 40 µM),relative viability (Serdemetan + Pictilisib; first compound 0.04 µM),relative viability (Serdemetan + Pictilisib; first compound 0.1265 µM),relative viability (Serdemetan + Pictilisib; first compound 0.4 µM),relative viability (Serdemetan + Pictilisib; first compound 1.265 µM),relative viability (Serdemetan + Pictilisib; first compound 4 µM),relative viability (Serdemetan + Vorinostat; first compound 0.04 µM),relative viability (Serdemetan + Vorinostat; first compound 0.1265 µM),relative viability (Serdemetan + Vorinostat; first compound 0.4 µM),relative viability (Serdemetan + Vorinostat; first compound 4 µM),relative viability (Selisistat + Pemetrexed; first compound 0.4 µM),relative viability (Selisistat + Pemetrexed; first compound 1.265 µM),relative viability (Selisistat + Pemetrexed; first compound 12.65 µM),relative viability (Selisistat + Pemetrexed; first compound 40 µM),relative viability (Serdemetan + Vorinostat; first compound 1.265 µM),relative viability (Selisistat + Olaparib; first compound 4 µM),relative viability (Selisistat + Pemetrexed; first compound 4 µM)
NCI-H23,0.234,0.353,0.305,0.31,0.536,0.571,0.459,0.439,0.543,0.664,0.695,0.643,0.517,0.649,0.742,0.619,0.595,–,–,–
NCI-H322M,0.857,0.83,0.845,0.868,0.519,0.505,0.468,0.552,0.516,0.798,0.906,0.857,0.854,0.558,0.633,0.515,0.618,0.806,–,–
NCI-H358,0.724,0.593,0.553,0.662,0.364,0.368,0.332,0.281,0.317,0.677,0.689,0.612,0.461,0.182,0.221,0.177,0.19,0.402,0.696,0.158
NCI-H441,0.49,0.51,0.504,0.534,0.486,0.481,0.418,0.277,0.384,0.795,0.71,0.765,0.436,0.31,0.247,0.271,0.279,0.479,0.582,0.293
NCI-H460,0.452,0.404,0.319,0.403,0.339,0.366,0.27,0.287,0.253,0.595,0.435,0.296,0.0723,0.0578,0.0622,0.0572,0.0629,0.0775,–,0.0632
NCI-H520,0.413,0.317,0.344,0.319,0.283,0.327,0.321,0.269,0.272,0.785,0.688,0.683,0.548,0.776,0.676,0.668,0.644,0.438,0.364,0.647
NCI-H596,0.802,0.715,0.619,0.609,0.41,0.411,0.346,0.332,0.339,0.568,0.543,0.578,0.425,0.514,0.546,0.475,0.478,0.428,0.643,0.485
NCI-H647,0.622,0.577,0.48,0.591,0.359,0.313,0.499,0.392,0.445,0.517,0.693,0.645,0.483,0.165,0.203,0.174,0.178,0.516,0.736,0.193
NCI-H650,0.51,0.379,0.382,0.3,0.743,0.778,0.977,0.793,0.746,0.352,0.478,0.51,0.46,0.961,0.907,0.921,1.18,0.405,0.496,1.06
NCI-H661,0.739,0.713,0.667,0.577,0.589,0.356,0.383,0.342,0.361,0.77,0.793,0.738,0.752,0.915,0.898,0.929,0.861,0.712,0.781,0.854
NCI-H838,0.833,0.782,0.75,0.733,0.395,0.508,0.507,0.438,0.549,0.729,0.69,0.684,0.696,0.243,0.243,0.228,0.226,0.728,0.842,0.222
NCI-H1355,0.796,0.775,0.735,0.813,0.456,0.491,0.405,0.445,0.435,0.654,0.688,0.632,0.541,1.12,1.08,1.08,1.11,0.617,0.664,1
NCI-H1395,0.474,0.47,0.451,0.465,0.574,0.619,0.676,0.485,0.475,0.574,0.848,0.696,0.508,0.97,0.968,0.639,0.908,0.526,–,–
NCI-H1437,0.599,0.615,0.565,0.544,0.469,0.409,0.454,0.492,0.342,0.771,0.786,0.79,0.616,0.321,0.328,0.28,0.299,0.623,0.618,0.321
NCI-H1650,0.933,0.863,0.852,0.702,0.57,0.585,0.475,0.41,0.441,0.406,0.663,0.518,0.42,0.359,0.348,0.397,0.326,0.291,0.86,0.354
NCI-H1651,0.197,0.168,0.183,0.21,0.434,0.496,0.433,0.456,0.23,0.573,0.386,0.509,0.336,0.64,0.673,0.519,0.497,0.492,0.215,0.51
NCI-H1666,0.798,0.763,0.811,0.631,0.412,0.413,0.525,0.531,0.465,0.896,0.935,0.907,0.713,0.948,0.803,0.822,0.853,–,0.745,0.871

Cell Line,relative viability (Selisistat + Olaparib; first compound 0.4 µM),relative viability (Selisistat + Olaparib; first compound 1.265 µM),relative viability (Selisistat + Olaparib; first compound 12.65 µM),relative viability (Selisistat + Olaparib; first compound 40 µM),relative viability (Serdemetan + Pictilisib; first compound 0.04 µM),relative viability (Serdemetan + Pictilisib; first compound 0.1265 µM),relative viability (Serdemetan + Pictilisib; first compound 0.4 µM),relative viability (Serdemetan + Pictilisib; first compound 1.265 µM),relative viability (Serdemetan + Pictilisib; first compound 4 µM),relative viability (Serdemetan + Vorinostat; first compound 0.04 µM),relative viability (Serdemetan + Vorinostat; first compound 0.1265 µM),relative viability (Serdemetan + Vorinostat; first compound 0.4 µM),relative viability (Serdemetan + Vorinostat; first compound 4 µM),relative viability (Selisistat + Pemetrexed; first compound 0.4 µM),relative viability (Selisistat + Pemetrexed; first compound 1.265 µM),relative viability (Selisistat + Pemetrexed; first compound 12.65 µM),relative viability (Selisistat + Pemetrexed; first compound 40 µM),relative viability (Serdemetan + Vorinostat; first compound 1.265 µM),relative viability (Selisistat + Olaparib; first compound 4 µM),relative viability (Selisistat + Pemetrexed; first compound 4 µM)
NCI-H1734,0.667,0.553,0.583,0.658,0.466,–,0.354,0.163,0.242,0.65,0.366,0.331,0.128,0.357,0.388,0.434,0.391,0.149,0.731,0.401
NCI-H1755,0.955,0.835,0.875,0.952,0.428,0.458,0.455,0.307,0.296,0.648,0.811,0.741,0.459,0.406,0.431,0.619,0.366,0.54,0.941,0.524
NCI-H1793,1.01,0.935,0.812,0.912,0.302,0.415,0.31,0.163,0.199,0.808,0.671,0.439,0.397,1.06,0.824,1.03,0.867,0.286,–,–
NCI-H1915,0.329,0.26,0.252,0.304,0.966,1.01,0.921,0.811,0.985,0.538,0.535,0.513,0.509,0.494,0.559,0.462,0.489,0.508,0.25,0.495
NCI-H1944,0.431,0.381,0.357,0.413,0.354,0.383,0.34,–,0.338,0.485,0.628,0.635,0.294,0.634,0.575,0.674,0.584,0.339,0.335,0.458
NCI-H1975,0.765,0.728,0.653,0.605,0.302,0.355,0.317,0.338,0.31,0.718,0.725,0.697,0.687,0.275,0.283,0.278,0.316,0.743,0.776,0.3
NCI-H1993,1.06,1.07,1.15,1.03,0.815,0.884,0.809,–,0.761,0.935,0.609,0.669,0.782,0.581,0.711,0.554,0.592,0.767,–,–
NCI-H2009,0.763,0.683,0.743,0.672,0.793,0.822,0.887,0.424,0.662,0.583,0.695,0.805,0.558,1.13,1.07,1.04,1.04,0.638,0.838,1.06
NCI-H2023,0.555,0.443,0.413,0.435,0.219,0.28,0.19,0.182,0.189,0.48,0.708,0.53,0.258,0.239,0.259,0.203,0.236,0.343,0.523,0.258
NCI-H2085,0.818,0.771,0.824,0.855,0.486,0.516,0.483,0.357,0.438,0.761,0.776,0.695,0.524,1.06,0.967,0.939,0.877,0.484,0.766,0.622
NCI-H2087,0.748,0.684,0.573,0.553,0.961,0.966,0.814,0.493,0.422,0.864,0.316,0.527,0.213,0.681,0.624,0.634,0.691,0.226,–,–
NCI-H2126,0.981,0.922,0.921,0.934,0.552,0.473,0.428,0.521,0.542,0.806,0.913,0.628,0.659,0.716,0.653,0.68,0.655,0.669,0.904,0.588
NCI-H2170,0.596,0.581,0.585,0.664,0.365,0.34,0.311,0.28,0.349,0.828,0.834,0.806,0.876,0.249,0.264,0.244,0.242,0.733,0.647,0.25
NCI-H2228,0.637,0.656,0.741,0.702,0.322,0.26,0.327,0.257,0.214,0.588,0.542,0.573,0.219,0.32,0.308,0.325,0.408,0.244,0.523,0.344
NCI-H2347,0.719,0.622,0.605,0.621,0.718,0.517,0.71,0.69,0.464,0.648,0.53,0.703,0.414,0.526,0.425,0.411,0.432,0.334,–,0.374
NCI-H2405,0.899,0.909,0.769,0.882,0.457,0.403,0.491,0.42,0.41,0.968,0.973,0.91,0.846,0.984,1.04,1.01,1.04,0.788,–,–
